Test results reported in patent publication US12150940B2, “WASp-protecting small molecules, compositions, methods and uses thereof in the treatment of innate and acquired immune-related disorders or conditions” (BAR ILAN UNIVERSITY, priority 2016, dated 2024).

Columns and labels:
Jurkat T cells = test: Lymphocyte migration on ICAM-1/SDF-1α-coated cover glasses; format: cell-based, human; conditions: tracked over 20 min, mean ± SE
Procedure: Jurkat T cells were pretreated with DMSO or the indicated WASp-binding SMCs, and cell migration on ICAM-1/SDF-1α-coated cover glasses was tracked over a 20-min period, as described in Experimental procedures. Each line in FIG. 10A represents one cell. The tracks of five representative cells from each treatment are presented.
Error bars represent the SE from the mean. P values versus DMSO-treated control cells are presented and were calculated by two-tailed Student's t-test.
Approximately 1×10^5 lymphocytes were seeded over chambered coverslips (LabTek) pre-coated with 6 μg/ml ICAM-1 and 2 μg/ml SDF-1α. Cells were incubated at 37° C., 5% CO2 and DIC images were acquired with the Zeiss Observer Z1 inverted microscope every 5 s for 20 min under a 20× objective lens using Zen software. The random movement (Displacement and velocity) of the cells was automatically tracked and analyzed using TrackMate plugin of ImageJ software. An individual trace was assigned to each of the analyzed cells.
A common theme of active lymphocytes is their high migratory ability. This enables them to move within tissues and reach and engage target cells (Burkhardt et al, 2008). Because WASp plays a role in cellular motility, the ability of WASp-binding SMCs to effectively enhance the migration of lymphocytes was tested. The random movement of SMC-treated or control cells was automatically tracked and analyzed using live microscopy, as described in Experimental procedures.

WASp = biological target: T1, WASp (Homo sapiens, UniProt P42768); test: WASp ubiquitylation in PBMCs (immunoprecipitation, anti-ubiquitin blot); format: cell-based; conditions: vs activated negative control cells
T1 construct: endogenous in cells; host or cells: primary human platelets from healthy donors
T1 sequence (P42768 1-502): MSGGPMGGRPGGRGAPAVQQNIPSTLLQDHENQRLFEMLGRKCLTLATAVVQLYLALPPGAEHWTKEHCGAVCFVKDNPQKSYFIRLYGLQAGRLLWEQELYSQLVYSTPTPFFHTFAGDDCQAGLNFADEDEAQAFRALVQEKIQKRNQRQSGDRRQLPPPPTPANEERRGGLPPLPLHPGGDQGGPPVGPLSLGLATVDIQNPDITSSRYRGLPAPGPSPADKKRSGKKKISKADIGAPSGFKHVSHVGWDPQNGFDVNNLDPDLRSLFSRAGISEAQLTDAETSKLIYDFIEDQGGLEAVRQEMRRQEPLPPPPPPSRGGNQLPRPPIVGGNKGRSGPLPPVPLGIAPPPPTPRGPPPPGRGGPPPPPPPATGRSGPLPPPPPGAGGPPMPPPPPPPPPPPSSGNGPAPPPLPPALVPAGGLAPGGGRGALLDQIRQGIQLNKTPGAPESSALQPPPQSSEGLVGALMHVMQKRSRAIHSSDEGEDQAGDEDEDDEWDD
Procedure: FIGS. 12C and 12D. show freshly-isolated PBMCs that were either co-stimulated (+) with anti-CD3 and anti-CD28 or unstimulated (−). The PBMCs were pre-incubated at 37° C. for 15 min with either DMSO or the indicated WASp-binding SMCs (FIG. 12C—SMC #6; FIG. 12D—SMC #33), followed by lysis. WASp ubiquitylation was determined by immunoprecipitation as in FIG. 12A-12B. Ubiquitylated WASp appears as a smear of bands above the MW of 65 kDa with a prominent band at […]. Blots are representative of three independent experiments.
Immunoprecipitations and western blotting analysis were performed as previously described (Reicher et al, 2012). Briefly, platelets (2×10^8 cells per sample) were lysed by the addition of an equal volume of 2× lysis buffer (30 mM HEPES pH7.4, 300 mM NaCl, 2 mM phenylmethyl sulfonyl fluoride (PMSF), 2 mM sodium orthovanadate, 2% Triton X-100 and complete protease inhibitor tablets (Roche)). MEG-01 cells (2×10^7 cells per sample) were lysed in 1.25× lysis buffer. Proteasome activity was blocked by addition of MG132 (AdooQ) to platelets and Meg-01 cell medium at final concentration of 10 μM, for 1 h before the cells were harvested. Densitometric analysis of band intensities was performed with ImageJ software, with final results normalized with WASp or GAPDH as loading controls for immunoprecipitated samples and whole-cell lysates, respectively. […]

platelets = test: Platelet intra-cellular calcium concentration (Indo-1-AM); format: cell-based, human; conditions: TRAP-6 10 μM, vs solvent
Procedure: Freshly-isolated human platelets were incubated with either control DMSO or the indicated WASp-binding SMCs, specifically, SMC #6 (FIG. 11A), SMC #30 (FIG. 11B), SMC #33 (FIG. 11C) and SMC #34 (FIG. 11D). Platelets were stimulated with TRAP-6 and calcium levels were measured by spectrofluorometer, as described in Experimental procedures. Data are representative of three independent experiments.
Cells were incubated with 5 μM Indo-1-acetoxymethylester (Indo-1-AM, Teflabs) in Tyrode's buffer at 37° C. for 20 min. The cells were washed once, resuspended in Tyrode's buffer containing 10 mM HEPES and maintained at room temperature for 20 min. The cells were incubated at 37° C. for 5 min before measurements and then stimulated with 10 μM TRAP-6. The Ca^2+ influx was measured by spectrofluorometer using the Synergy 4 Microplate Reader (Bio Tek).
However, following receptor-mediated stimulation, platelets dramatically elevate their intra-cellular calcium concentrations, which in turn serve as signaling cues that evoke platelet effector functions, including platelet spreading, adhesion and aggregation (Varga-Sabo et al, 2009). Therefore, the ability of WASp-protecting SMCs to upregulate intra-cellular calcium accumulation in activated platelets was next tested. Freshly-isolated human platelets were incubated with SMC #6, #30, #33 and #34 or with the solvent (negative control). Following incubation, platelets were stimulated with thrombin receptor activator peptide TRAP-6 (10 μM) and calcium levels were measured by spectrofluorometer, using Indo-1-AM-based calcium assay as described in Experimental procedures.

SMILES | mean cell displacement (Jurkat T cells) | ubiquitylation of WASp in active lymphocytes (WASp) | intra-cellular calcium concentration in activated platelets (platelets)
CC(=O)N[C@H]1C[C@@H](c2ccc3c(c2)nnn3C)O[C@@H](c2ccc(Cl)cc2)C1 [SMC #6, N-[(2R,4R,6S)-2-(4-chlorophenyl)-6-(1-methylbenzotriazol-5-yl)oxan-4-yl]acetamide] | 29.52±2.96 | downregulated | dramatically enhanced
Cc1ccccc1N(CC(=O)NCc1ccccc1)C(=O)CCC(=O)Nc1nccs1 [SMC #33, N′-[2-(benzylamino)-2-oxoethyl]-N′-(2-methylphenyl)-N-(1,3-thiazol-2-yl)butanediamide] | 32.92±4.28 | downregulated | dramatically enhanced
CC1CCCC(C)N1C(=O)CSc1nnc(COc2cccc3cccnc23)o1 (centres unmarked) [SMC #34, 1-(2,6-dimethylpiperidin-1-yl)-2-[[5-(quinolin-8-yloxymethyl)-1,3,4-oxadiazol-2-yl]sulfanyl]ethanone] | 48.91±6 |  | dramatically enhanced
